In patent US20100179200A1, “2-OXOTHIAZOLIDINE 4-CARBOXYLIC ACID COMPOUNDS FOR PROMOTING DESQUAMATION OF THE SKIN” (SOCIETE L'OREAL, S.A., priority 2000, published 2010):

What was measured:
[1] = Solubility of procysteine; assay type: physicochemical
[2] = tested on: corneodesmosine; test: Evaluating desquamation by measuring the degradation of corneodesmosines (immunoblot of stratum corneum acetonic powders); assay type: biochemical, human; details: aqueous solution containing 2% of active agent, pH 8.0, incubation 17 h at 30° C., versus control without active agent
From the text: Corneodesmosine is one of the major markers of desquamation of the corneodesmosome. It is studied by immunoblotting after separation by electrophoresis and transfer onto a membrane.
The mouse monoclonal antibody G36-19 is specific for corneodesmosine; it fauns part of a series of antibodies directed against epidermal differentiation antigens, produced after immunizing a mouse with a homogenate of human plantar horny layer, and then characterized (Serre G. et al., J. Invest. Dermatol. 1991; 97(6):1061-72).
Varnish-stripping operations are carried out on the lower legs of volunteers (modification of the procedure by Lundström A. and Egelrud T., Acta Derm. Venereol. (Stockholm) 71, 471-474, 1991). […]
The samples and also a Rainbow (Amersham Pharmacia Biotech) low molecular weight standard at 1/3 are separated by electrophoresis on gel containing 12% acrylamide for 30 minutes at 100 V and then for 1 hour at 200 V. After the electrophoresis, the proteins are transferred onto an Immobilon-P membrane (Millipore) for 3 hours at 60 V. The membrane is then incubated for twice 15 minutes in TBS-TL buffer: 25 mM Tris, 0.15M NaCl pH 7.2, 0.05% Tween 20, 0.5% skimmed milk powder, in order to block the non-specific sites. […] The chemiluminescence of the corneodesmosine bands is measured with the FluorS Multimager (Biorad). The 33 and 46 kD bands are quantified with the Quantity-one software (Biorad). […]

solubility in ethanol ([1]; ethanol): greater than 10% | solubility in water ([1]; water): greater than 4%
Structure (SMILES): O=C1N[C@H](C(=O)O)CS1 [Procysteine, L-2-oxothiazolidine-4-carboxylic acid]
Percentage increase in corneodesmosine degradation [2]: 77%
